7 compounds from patent US12133855B2, “Lipid-like nanocomplexes and uses thereof” (Trustees of Tufts College, priority 2018, dated 2024) can be followed below.

What all share (assay type): cell-based
One experiment deals with HeLa-DsRed cells. Briefly: Genome editing efficiency of (−30)GFP-Cre/OCholB LNPs (DsRed+ cells). The settings on record: for DsRed^+ cells: 8 h exposure, 24 h incubation. An excerpt: In this context, the internalization mechanism of the (−30)GFP-Cre/LNPs complexes was studied at first, by introducing different endocytosis inhibitors, i.e., sucrose (clathrin-mediated endocytosis inhibitor), methyl-β-cyclodextrin (M-β-CD, cholesterol-depleting agent), dynasore (dynamin II inhibitor) and nystatin (caveolin-mediated endocytosis inhibitor), following our previously reported procedures. […] Comparing to other combinatorial library studies, it is clear that even loaded with same cargoes and tested against same cell line, different lipidoids with different chemical structures could be internalized through very distinct pathways. Next, the genome-editing efficiencies of (−30)GFP-Cre/LNPs were determined by flow cytometry after 24 h of incubation (with 8 h of (−30)GFP-Cre/LNPs complex exposure). Three different concentrations of protein/lipidoid complexes (25 nM/1.7 μg mL^−1, 50 nM/3.4 μg mL^−1, and 100 nM/6.6 μg mL^−1) were tested for each lipidoid nanoparticle. […] For example, the DsRed^+ cells were recorded as 10.5%/24.9%/88.9%, 13.5%/55.4%/88.8%, and 27.7%/47.8%/94.7% for (−30)GFP-Cre loaded 75-OCholB, 76-OCholB and 77-OCholB, respectively, at the protein concentration of 25, 50 and 100 nM. […] Then, the cytotoxicity profiles of (−30)GFP-Cre/LNPs, (−30)GFP-Cre/Lpf2k and naked (−30)GFP-Cre at different concentrations against HeLa-DsRed cells (8 h of exposure; (−30)GFP-Cre/LNPs=25 nM/1.7 μg mL^−1, 50 nM/3.4 μg mL^−1, and 100 nM/6.6 μg mL^−1) are measured using MTT assay after 24 h of incubation. […] For (−30)GFP-Cre/75-OCholB treated cells, the viabilities were determined to be 95.5%, 91.8% and 83.1%, at the protein concentration of 25, 50 and 100 nM, respectively; the numbers for (−30)GFP-Cre/76-OCholB and (−30)GFP-Cre/77-OCholB are 97.8%/98.2%/97.2 and 100.9%/96.6%/98.6%. […] Meanwhile, the morphology changes of HeLa-DsRed cell treated with different nanoparticle formulations were studied and the results are shown in FIG. 15E. […] Samples found in upper left quadrant are non-toxic and inefficient for delivery; samples in lower left quadrant are toxic and inefficient; samples in lower right quadrant are efficient but toxic; samples in upper right quadrant are non-toxic and efficient, which would be top candidates for further study. It is clear that Lpf2k (shown in dotted purple circle) at high concentration is relatively efficient for genome editing, while also toxic to the target cells. On the other hand, most of the (−30)GFP-Cre loaded OCholB LNPs are almost non-toxic when compared to (−30)GFP-Cre/Lpf2k, similar to naked (−30)GFP-Cre protein. 87-OCholB, 90-OCholB and 304-OCholB (shown in dotted dark blue circle) are less efficient for genome-editing; while high genome editing efficacy and excellent tolerability were achieved by using 75-OCholB, 76-OCholB and 77-OCholB (shown in dotted green circle).

The subject of experiment [1] is HeLa cells. Description: Internalization of Nile red loaded nanoparticles (NR+ cells). As to conditions: 8 h of exposure. As for the experimental part:
The internalization kinetics and efficiencies of OCholB LNPs were then studied using NR loaded LNPs and HeLa cells. […] Next, all of the NR delivery efficiencies of eight OCholB LNPs were determined after 8 h of exposure. […] Representative fluorescent images of NR/LNPs (NR/75-OCholB, NR/76-OCholB and NR/77-OCholB) treated HeLa cells are shown in FIG. 12D, from which it is easily observed that NR was delivered into the cells and mainly distributed in cytoplasm, by OCholB LNPs. Next, the internalization of negatively charged hydrophilic fluorescent dye, calcein, was studied. […] Next, the use of OCholB LNPs for the intracellular delivery of macromolecular cargo was explored, using fluorescent recombinant (−30)GFP-Cre protein and HeLa-DsRed cells as the model system. […] Delivery efficiency was tested at a range of (−30)GFP-Cre protein concentrations (25, 50 and 100 nM), with a consistent lipid/protein ratio (i.e., delivery with the final lipid concentration of 1.7, 3.3, and 6.6 μg mL^−1 respectively). 33.2%, 43.8% and 74% of GFP positive (GFP^+) cells were recorded for (−30)GFP-Cre/Lpf2k treated cells with the concentration of (−30)GFP-Cre 25 nM, 50 nM and 100 nM, respectively. […] The typical flow cytometry profiles of naked (−30)GFP-Cre protein and (−30)GFP-Cre loaded nanoparticles ((−30)GFP-Cre/75-OCholB, (−30)GFP-Cre/76-OCholB, (−30)GFP-Cre/77-OCholB and (−30)GFP-Cre/Lpf2k) treated HeLa-DsRed cells were shown in and FIG. 12H ([lipidoid]=6.6 μg mL^−1 and [(−30)GFP-Cre]=100 nM), which is consistent with the statistical results shown in FIG. 12G. Furthermore, the representative fluorescent images from the protein and protein/nanoparticle treated HeLa-DsRed cells are also shown in FIG. 12I.

For experiment [2], the system named is HeLa cells. Briefly: GFP mRNA delivery (GFP+ cells). As to conditions: LNP/mRNA=10/1; [mRNA]=0.86 μg mL^−1; 24 h exposure. The text has this:
Messenger RNA delivery has great potentials for cancer therapy, protein replacement therapy and neurological disorder treatments.^42 The intracellular delivery of mRNA using OCholB LNPs was studied using GFP mRNA and different cell lines (HeLa, B16F10, HEK-293, NIH/3T3 and Jurkat). The weight ratio of LNP/mRNA was optimized at first using HeLa cells. […] The weight ratio of LNP/mRNA=10/1 was then chose for the following mRNA delivery studies. […] Then the intracellular delivery efficiencies of all fully substituted OCholB LNPs were tested against HeLa cells, and Lpf2k and naked GFP mRNA were used as controls (LNP/mRNA=10/1; [mRNA]=0.86 μg mL^−1; 24 h exposure). […] As to the OCholB LNPs, 75-OCholB (62.0% of GFP^+ cells), 76-OCholB (79.8%), 77-OCholB (73.5%), 78-OCholB (67.1%), 80-OCholB (55.6%), 81-OCholB (51.6%) and 304-OCholB (52.1%) are all determined to be effective. Typical fluorescent images of mRNA/LNPs (mRNA/75-OCholB, mRNA/76-OCholB and mRNA/77-OCholB) treated HeLa cells are shown in FIG. 14C. Comparing to untreated HeLa cells, strong green fluorescent signals were recoded from nanoparticles incubated cells, which is consistent with the flow cytometry data as shown in FIG. 14D. Meanwhile, both 87-OCholB (6.1%) and 90-OCholB (2.5%) are found to be inefficient for GFP mRNA delivery into HeLa cells, which is consistent with the internalization studies using NR (FIG. 12C) and (−30)GFP-Cre protein (FIG. 12F) as the fluorescent reporters.

Where [3] appears, read: protein/lipidoid 100 nM/6.6 μg mL^−1.
[4] abbreviates: protein/lipidoid 25 nM/1.7 μg mL^−1.
The mark [5] stands for this setting: protein/lipidoid 50 nM/3.4 μg mL^−1.

As to `CC(C)CCCC(C)C1CCC2C3CC=C4CC(OC(=O)NCCSSCCOC(=O)CCN(CCC(=O)OCCSSCCNC(=O)OC5CCC6(C)C(=CCC7C6CCC6(C)C(C(C)CCCC(C)C)CCC76)C5)CCN(C)C)CCC4(C)C3CCC12C` (stereo not drawn) [Lipidoid 78-OCholB], the “DsRed^+ cells” value in the experiment with HeLa-DsRed cells (setting [3]) is “out-performed Lpf2k”. The “NR^+ cells” value in the experiment with HeLa cells [1] is on record as 92.3%. Also, in the experiment on HeLa cells [2], the “GFP^+ cells” value stood at 67.1%.
Turning to `CCN(CC)CCCN(CCC(=O)OCCSSCCNC(=O)OC1CCC2(C)C(=CCC3C2CCC2(C)C(C(C)CCCC(C)C)CCC32)C1)CCC(=O)OCCSSCCNC(=O)OC1CCC2(C)C(=CCC3C2CCC2(C)C(C(C)CCCC(C)C)CCC32)C1` (stereo not drawn) [Lipidoid 81-OCholB], the “DsRed^+ cells” value in the experiment on HeLa-DsRed cells (setting [3]) was “out-performed Lpf2k”. In addition, the “NR^+ cells” value in the experiment with HeLa cells [1] is recorded as 27.0%. Also, in the experiment on HeLa cells [2], the “GFP^+ cells” value is reported as 51.6%.
As to `CC(C)CCCC(C)C1CCC2C3CC=C4CC(OC(=O)NCCSSCCOC(=O)CCN(CCC(=O)OCCSSCCNC(=O)OC5CCC6(C)C(=CCC7C6CCC6(C)C(C(C)CCCC(C)C)CCC76)C5)CCN5CCCC5)CCC4(C)C3CCC12C` (stereo not drawn) [Lipidoid 76-OCholB], the “DsRed^+ cells” value is given as 13.5% with HeLa-DsRed cells (setting [4]) and 55.4% in the experiment with HeLa-DsRed cells (setting [5]). Moreover, in the experiment with HeLa cells [1], the “NR^+ cells” value stood at 65.0%. Moreover, the “GFP^+ cells” value in the experiment with HeLa cells [2] is listed as 79.8%.
Consider `CC(C)CCCC(C)C1CCC2C3CC=C4CC(OC(=O)NCCSSCCOC(=O)CCN(CCCN(C)C)CCC(=O)OCCSSCCNC(=O)OC5CCC6(C)C(=CCC7C6CCC6(C)C(C(C)CCCC(C)C)CCC76)C5)CCC4(C)C3CCC12C` (stereo not drawn) [Lipidoid 80-OCholB], for which, in the experiment with HeLa-DsRed cells (setting [3]), the “DsRed^+ cells” value was “out-performed Lpf2k”. Moreover, in the experiment with HeLa cells [1], the “NR^+ cells” value was determined as 71.4%. The “GFP^+ cells” value in the experiment on HeLa cells [2] is on record as 55.6%.
`CCN(CC)CCN(CCC(=O)OCCSSCCNC(=O)OC1CCC2(C)C(=CCC3C2CCC2(C)C(C(C)CCCC(C)C)CCC32)C1)CCC(=O)OCCSSCCNC(=O)OC1CCC2(C)C(=CCC3C2CCC2(C)C(C(C)CCCC(C)C)CCC32)C1` (stereo not drawn) [Lipidoid 75-OCholB]: the “DsRed^+ cells” value turned out to be 10.5% in the experiment on HeLa-DsRed cells (setting [4]) and 24.9% in the experiment with HeLa-DsRed cells (setting [5]). Further, the “NR^+ cells” value with HeLa cells [1] turned out to be 85.2%. The “GFP^+ cells” value in the experiment with HeLa cells [2] is 62.0%.
Take `CC(C)CCCC(C)C1CCC2C3CC=C4CC(OC(=O)NCCSSCCOC(=O)CCN(C)CCN(CCN(C)CCC(=O)OCCSSCCNC(=O)OC5CCC6(C)C(=CCC7C6CCC6(C)C(C(C)CCCC(C)C)CCC76)C5)CCN(C)CCC(=O)OCCSSCCNC(=O)OC5CCC6(C)C(=CCC7C6CCC6(C)C(C(C)CCCC(C)C)CCC76)C5)CCC4(C)C3CCC12C` (stereo not drawn) [Lipidoid 304-OCholB]: in the experiment with HeLa-DsRed cells ((−30)GFP-Cre 25, 50 and 100 nM), the “genome editing efficacy (DsRed^+ cells), overall” value was “less efficient at delivery”. Besides, the “NR^+ cells” value in the experiment on HeLa cells [1] is 22.8%. In addition, the “GFP^+ cells” value with HeLa cells [2] is given as 52.1%.
As to `CC(C)CCCC(C)C1CCC2C3CC=C4CC(OC(=O)NCCSSCCOC(=O)CCN(CCC(=O)OCCSSCCNC(=O)OC5CCC6(C)C(=CCC7C6CCC6(C)C(C(C)CCCC(C)C)CCC76)C5)CCC5CCCN5C)CCC4(C)C3CCC12C` (stereo not drawn) [Lipidoid 77-OCholB], the “DsRed^+ cells” value came out at 27.7% in the experiment on HeLa-DsRed cells (setting [4]) and 47.8% in the experiment on HeLa-DsRed cells (setting [5]). Besides, in the experiment on HeLa cells [1], the “NR^+ cells” value is given as 90.3%. In addition, the “GFP^+ cells” value in the experiment on HeLa cells [2] is given as 73.5%.
